Our source for the inhibition in vivo and inhibition values is ChEMBL document CHEMBL2057088 (Bioorg Med Chem, 2012).

For experiment [1], the species on record is Rattus norvegicus. Briefly: animal or person. The following applies: Wistar, Plasma, po, 24 h, read-out: INH.
Experiment [2] relates to Rattus norvegicus. Briefly: Ex-vivo inhibition of DPP4 in po dosed Wistar rat plasma up to 24 hrs by fluorometry. It is filed as functional, organism-based.

With `O=C([C@@H]1C[C@H](N2CCN(c3cc(C(F)(F)F)nc4ccccc34)CC2)CN1)N1CCSC1`, in experiment [1], the inhibition in vivo at 3 µmol/kg is > 40%. Further, the inhibition result in experiment [2] is “Dose-dependent effect”.
